Tests used:
P. vinckei = format: in vivo, A/J mice; settings: for protection against heterologous challenge: 3 doses of 10^6 P. chabaudi pRBC (ring stages) i.v. 2 weeks apart, compound 2 μM, 40 minutes, 37° C., challenge 10^4 P. vinckei (FIG. 7B)
P. chabaudi [1] = format: in vivo, A/J mice; settings: for protection against homologous challenge: 3 doses of 10^6 pRBC (ring stages) i.v. 2 weeks apart, compound 2 μM, 40 minutes, 37° C., challenge 10^5 P. chabaudi (FIG. 7A)
P. chabaudi [2] = settings: 500 μL blood of mice immunized with 10^7 centanamycin (2 μM or 200 nM) attenuated pRBC taken at day 42 post-innoculation, transferred to naïve reporter mice

Compound | protection against heterologous challenge (P. vinckei) | parasitaemia by day 11 post-challenge (P. chabaudi [1]; 3 doses of 10^4, 10^5 or 10^6 pRBC, each group, centanamycin 2 μM (FIG. 4)) | protection against homologous challenge (P. chabaudi [1]) | parasitaemia compared between dose groups, e.g. at day 9 post-challenge (P. chabaudi [1]; 3 doses of 10^6 pRBC versus 10^4 and 10^5, centanamycin 2 μM (FIG. 4)) | vaccination efficacy, 200 nM attenuation (P. chabaudi [1]; 3 doses or a single dose of 10^4 P. chabaudi pRBC treated with 200 nM centanamycin (FIG. 3)) | vaccine efficacy, 3 doses (P. chabaudi [1]; centanamycin attenuated P. chabaudi pRBC, 3 doses of vaccine) | clinical score data (P. chabaudi [1]; immunization with 10^6 centanamycin-treated parasites and challenge (FIG. 6)) | immunity to virulent challenge (parasitemia) (P. chabaudi [1]; pRBC treated in vitro with 2 μM centanamycin, 5 doses i.v. 1 week apart, 10^4 parasites each, challenge 10^5 homologous WT pRBC) | protection, single dose (P. chabaudi [1]; single dose of 10^4 pRBC, centanamycin 2 μM, challenge 10^5 pRBC 35 days after vaccination (FIG. 2)) | parasitaemia at day 8 and 9 post-challenge versus 2 μM attenuated parasites (P. chabaudi [1]; single dose of 10^7 pRBC attenuated using 200 nM centanamycin (FIG. 5)) | recovery by day 13 post-innoculation (P. chabaudi [1]; single dose of 10^7 pRBC attenuated using 200 nM centanamycin, compared with 2 μM (FIG. 5)) | parasites detected by microscopy (P. chabaudi [2]) | peak parasite density (P. vinckei; 1 mouse of the group, P. vinckei challenge) | recovery by day 12 (P. vinckei; P. vinckei challenge, all animals)
COc1cc2cc(C(=O)Nc3cc(O)c4ncc(C)cc4c3CCCl)[nH]c2c(OC)c1OC [AS-VIII-104] | performed similarly to centanamycin | – | – | – | – | – | – | – | – | – | – | – | – | –
COc1cc2cc(C(=O)Nc3cc(N)c4ccccc4c3CCCl)[nH]c2c(OC)c1OC [centanamycin] | – | little or no parasitaemia | lower | lowest | effectively vaccinated | work effectively | protected not only from death and high parasitemia but also from symptoms | induces immunity to virulent challenge | induces protection in most animals | more significant parasitaemia | recovered to the same extent | no parasites detected | – | –
COc1cc2cc(C(=O)N3CC(CCl)c4c3cc(O)c3ccoc43)[nH]c2c(OC)c1OC (stereo not shown) [tafuramycin A, seco-iso-cyclopropylfurano[2,3-e]indoline-TMI] | very significant protection | – | near complete protection | – | – | – | – | – | – | – | – | – | approximately 20% | all the animals had fully recovered
